In patent publication EP3722296B1, “DIHYDRONAPHTHYRIDINES AND RELATED COMPOUNDS USEFUL AS KINASE INHIBITORS FOR THE TREATMENT OF PROLIFERATIVE DISEASES” (Deciphera Pharmaceuticals, LLC, priority 2012, dated 2013) one finds IC50 data, which are given here for 17 compounds.

One test concerns the target T1, c-KIT D816V kinase (Homo sapiens, UniProt P10721, D816V).
T1 construct: residues T544-V976 with N-terminal GST fusion; purchased deCODE Biostructures
The experiment in a line: c-KIT D816V kinase Assay. The class given is biochemical. The settings on record: enzymatic assay, ATP 200 uM. A digest of the protocol:
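Coupled assay in which NADH oxidation was tracked as decreasing absorbance at 340 nm, continuously for 5 hours at 30 °C after adding serially diluted compound. Enzyme: cKit residues T544-V976 with N-terminal tag, GST fusion and TEV cleavage site.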

For the next test, the target named is T2, c-KIT VVDV kinase (Homo sapiens, UniProt P10721, D816V/DEL559-560).
T2 construct: This construct contains residues T544-V976 of cKit; GST (N); TEV cleavage site (internal); purchased deCODE Biostructures
The test is described as follows: cKIT-VVDV kinase Assay. Format: biochemical. The settings on record: enzymatic assay; V559+V560 deletions and D816V mutation. A digest of the protocol:
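Coupled spectrophotometric format: kinase activity followed as NADH oxidation, loss of absorbance at 340 nm. Serially diluted compound mixed with the reaction mixture to start; read continuously for 5 h at 30 °C.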

Another test relates to GIST T1 cells. The test is described as follows: GIST T1 Cell Proliferation Assay. Format: cell-based. The settings on record: Homo sapiens, GISTT1, 72 h, 68 hours + 4 hours resazurin.
The target in test [1] is T3, Phospho-KIT (Tyr719) (Homo sapiens, UniProt P10721, K642E).
T3 construct: endogenous in cells; host or cells: GIST882
The experiment in a line: GIST882 KIT Western Blot. The class given is cell-based. The settings on record: GIST882 cells, 4 hours, serum-free medium; read-out: pKIT suppression by western blot analysi GIST 882. As to the method: GIST48, GIST430, and GIST882 cells were obtained from J. Fletcher (Brigham and Women's Hospital, Boston, MA). GIST T1 cells were obtained from B. Rubin (Cleveland Clinic, Cleveland, OH) and Professor Takahiro Taguchi (Kochi Medical School, Nankoku, Kochi, Japan). […] GIST430 cells were grown in Ham's F10 medium supplemented with 15% characterized fetal bovine serum (Invitrogen, Carlsbad, CA), 30 mg/L bovine pituitary extract (BD Biosciences, San Jose, CA), 0.5% Mito+ serum extender (BD Biosciences, San Jose, CA), 1 unit/mL penicillin G, 1 µg/ml streptomycin, and 0.29 mg/mL L-glutamine at 37 °C, 5%CO2, 95% humidity. GIST T1 cells were grown in DMEM medium supplemented with 10% characterized fetal bovine serum (Invitrogen, Carlsbad, CA), 1 unit/mL penicillin G, 1 µg/ml streptomycin, and 0.29 mg/mL L-glutamine at 37 °C, 5% CO2, and 95% humidity.
Two hundred fifty thousand cells were added per well in a 24-well tissue-culture treated plate. […] Medium was aspirated, cells were washed with PBS, and serum-free RPMI1640 medium was added. […] Cells were washed with PBS, then lysed. Cell lysates were separated by SDS-PAGE and transferred to PVDF. Phospho-KIT (Tyr719) was detected using an antibody from Cell Signaling Technology (Beverly, MA), ECL Plus detection reagent (GE Healthcare, Piscataway, NJ) and a Molecular Devices Storm 840 phosphorimager in fluorescence mode. Blots were stripped and probed for total KIT using an antibody from Santa Cruz Biotech (Santa Cruz, CA). IC50 values were calculated using Prism software (Graphpad, San Diego, CA).
A general note: In western blotting, separated proteins are transferred to a membrane and probed.

For test [2], the system named is Phospho-KIT (Tyr719). The test is described as follows: GIST430 KIT Western Blot. Format: cell-based. The settings on record: GIST430 cells, 4 hours, serum-free medium; read-out: pKIT suppression by western blot analysi GIST430. Summed up:
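GIST430 cells were compound-treated in serum-free Ham's F10, then lysed. Phospho-KIT (Tyr719) was measured by western blot with fluorescence-mode ECL, and blots were reprobed for total KIT; IC50 derived from concentration response.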

T1 sequence (P10721 544-976 D816V): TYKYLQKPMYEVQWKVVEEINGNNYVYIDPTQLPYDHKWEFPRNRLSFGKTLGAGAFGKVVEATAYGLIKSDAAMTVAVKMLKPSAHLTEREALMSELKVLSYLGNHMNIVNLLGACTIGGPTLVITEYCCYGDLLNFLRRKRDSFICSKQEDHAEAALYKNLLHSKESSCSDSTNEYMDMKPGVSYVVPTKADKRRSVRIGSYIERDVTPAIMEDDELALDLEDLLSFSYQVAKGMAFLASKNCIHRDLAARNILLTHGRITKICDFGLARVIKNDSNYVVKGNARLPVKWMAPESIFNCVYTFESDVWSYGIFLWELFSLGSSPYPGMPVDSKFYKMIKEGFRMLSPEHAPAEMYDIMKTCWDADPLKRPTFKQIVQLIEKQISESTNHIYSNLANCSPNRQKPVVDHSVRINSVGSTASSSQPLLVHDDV
T2 sequence (P10721 with tags, fused parts or gaps DEL559-560/D816V): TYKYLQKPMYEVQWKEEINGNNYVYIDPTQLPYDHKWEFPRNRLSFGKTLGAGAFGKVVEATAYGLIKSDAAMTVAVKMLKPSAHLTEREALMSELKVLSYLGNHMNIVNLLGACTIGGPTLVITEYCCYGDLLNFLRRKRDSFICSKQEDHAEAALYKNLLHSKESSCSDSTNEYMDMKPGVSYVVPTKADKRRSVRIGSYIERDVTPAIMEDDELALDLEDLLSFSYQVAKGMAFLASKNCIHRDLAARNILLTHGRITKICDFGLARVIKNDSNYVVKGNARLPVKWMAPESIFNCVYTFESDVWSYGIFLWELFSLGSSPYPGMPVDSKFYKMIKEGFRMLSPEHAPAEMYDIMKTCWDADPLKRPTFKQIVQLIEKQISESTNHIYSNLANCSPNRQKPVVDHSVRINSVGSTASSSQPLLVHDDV
T3 sequence (P10721 26-976 K642E): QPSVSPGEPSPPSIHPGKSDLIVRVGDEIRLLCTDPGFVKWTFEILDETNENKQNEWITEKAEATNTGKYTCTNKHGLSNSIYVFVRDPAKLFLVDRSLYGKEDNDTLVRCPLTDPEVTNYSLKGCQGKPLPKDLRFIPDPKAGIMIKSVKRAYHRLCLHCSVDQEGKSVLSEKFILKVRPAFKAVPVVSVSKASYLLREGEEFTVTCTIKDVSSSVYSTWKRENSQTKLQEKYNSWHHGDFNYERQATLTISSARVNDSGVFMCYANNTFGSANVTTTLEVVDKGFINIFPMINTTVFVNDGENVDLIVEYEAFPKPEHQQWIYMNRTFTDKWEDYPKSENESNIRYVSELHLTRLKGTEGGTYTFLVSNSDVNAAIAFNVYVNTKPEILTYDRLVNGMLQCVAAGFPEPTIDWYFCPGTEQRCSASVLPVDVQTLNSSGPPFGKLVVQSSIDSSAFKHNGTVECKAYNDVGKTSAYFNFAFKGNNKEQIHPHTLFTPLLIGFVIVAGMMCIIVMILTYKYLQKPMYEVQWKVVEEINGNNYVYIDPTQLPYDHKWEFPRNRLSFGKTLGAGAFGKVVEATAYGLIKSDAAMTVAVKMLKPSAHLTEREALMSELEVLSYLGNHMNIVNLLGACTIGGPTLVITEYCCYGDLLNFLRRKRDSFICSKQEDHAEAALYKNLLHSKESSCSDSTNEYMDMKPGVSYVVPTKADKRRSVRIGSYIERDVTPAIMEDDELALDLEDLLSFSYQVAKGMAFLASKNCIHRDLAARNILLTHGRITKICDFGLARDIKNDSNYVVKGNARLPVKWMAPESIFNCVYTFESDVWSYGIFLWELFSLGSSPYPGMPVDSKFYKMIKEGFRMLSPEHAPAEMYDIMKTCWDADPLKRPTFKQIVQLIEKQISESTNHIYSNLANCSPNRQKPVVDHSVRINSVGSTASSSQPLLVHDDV

Take `CCn1c(=O)c(-c2cc(NC(=O)Nc3ccccc3)c(F)cc2Cl)cc2cnc(NC)cc21` [Example 3, 1-(4-chloro-5-(1-ethyl-7-(methylamino)-2-oxo-1,2-dihydro-1,6-naphthyridin-3-yl)-2-fluorophenyl)-3-phenylurea]: the IC50 at c-KIT D816V kinase was 10 to 100 nM; at c-KIT VVDV kinase, < 10 nM; with GIST T1 cells, < 10 nM; on Phospho-KIT (Tyr719) [1] it was 10 to 100 nM.
For the compound `CCn1c(=O)c(-c2cc(NC(=O)Nc3cccc(F)c3F)c(F)cc2Cl)cc2cnc(NC)cc21` [Example 4, 1-(4-chloro-5-(1-ethyl-7-(methylamino)-2-oxo-1,2-dihydro-1,6-naphthyridin-3-yl)-2-fluorophenyl)-3-(2,3-difluorophenyl)urea], the IC50 was 10 to 100 nM on c-KIT D816V kinase; 10 to 100 nM with Phospho-KIT (Tyr719) [2]; < 10 nM on c-KIT VVDV kinase; < 10 nM in the test on GIST T1 cells; < 10 nM at Phospho-KIT (Tyr719) [1].
For the compound `CCn1c(=O)c(-c2cc(NC(=O)Nc3cccc4ccccc34)c(F)cc2Cl)cc2cnc(NC)cc21` [Example 6, 1-(4-chloro-5-(1-ethyl-7-(methylamino)-2-oxo-1,2-dihydro-1,6-naphthyridin-3-yl)-2-fluorophenyl)-3-(naphthalen-1-yl)urea], the IC50 was 10 to 100 nM on c-KIT D816V kinase; < 10 nM in the test on Phospho-KIT (Tyr719) [2]; < 10 nM at c-KIT VVDV kinase; 10 to 100 nM in the test with GIST T1 cells; 10 to 100 nM at Phospho-KIT (Tyr719) [1].
In the case of `CCn1c(=O)c(-c2cc(NC(=O)Nc3cccc(F)c3)c(F)cc2Cl)cc2cnc(N)cc21` [Example 20, 1-(5-(7-amino-1-ethyl-2-oxo-1,2-dihydro-1,6-naphthyridin-3-yl)-4-chloro-2-fluorophenyl)-3-(3-fluorophenyl)urea], the IC50 at c-KIT D816V kinase was < 10 nM; in the test on Phospho-KIT (Tyr719) [2] it was 10 to 100 nM; at c-KIT VVDV kinase, < 10 nM; on Phospho-KIT (Tyr719) [1], 10 to 100 nM.
As to `CNc1cc2c(cn1)cc(-c1cc(NC(=O)Nc3ccccc3)c(F)cc1Cl)c(=O)n2C(C)C` [Example 22, 1-(4-chloro-2-fluoro-5-(1-isopropyl-7-(methylamino)-2-oxo-1,2-dihydro-1,6-naphthyridin-3-yl)phenyl)-3-phenylurea], the IC50 at c-KIT D816V kinase is < 10 nM; in the test with Phospho-KIT (Tyr719) [2], 10 to 100 nM; on c-KIT VVDV kinase it was < 10 nM; in the test on GIST T1 cells it was < 10 nM; at Phospho-KIT (Tyr719) [1], 10 to 100 nM.
Consider `CCn1c(=O)c(-c2cc(NC(=O)Nc3ccccc3)c(F)cc2C)cc2cnc(NC)cc21` [Example 23, 1-(5-(1-ethyl-7-(methylamino)-2-oxo-1,2-dihydro-1,6-naphthyridin-3-yl)-2-fluoro-4-methylphenyl)-3-phenylurea], for which the IC50 on c-KIT D816V kinase was 10 to 100 nM; at c-KIT VVDV kinase it was 10 to 100 nM; with GIST T1 cells it was < 10 nM; on Phospho-KIT (Tyr719) [1] it was 10 to 100 nM.
With `CCn1c(=O)c(-c2cc(NC(=O)Nc3ccccc3)c(F)cc2Cl)cc2cnc(NCCOC)cc21` [Example 27, 1-(4-chloro-5-(1-ethyl-7-(2-methoxyethylamino)-2-oxo-1,2-dihydro-1,6-naphthyridin-3-yl)-2-fluorophenyl)-3-phenylurea], the IC50 at c-KIT D816V kinase fell in the range of 10 to 100 nM; in the test with Phospho-KIT (Tyr719) [2] it was 10 to 100 nM; at c-KIT VVDV kinase, 10 to 100 nM; at Phospho-KIT (Tyr719) [1], 100 to 1000 nM.
Consider `CCn1c(=O)c(-c2cc(NC(=O)Nc3ccccc3)c(F)cc2Br)cc2cnc(N)cc21` [Example 57, 1-(5-(7-amino-1-ethyl-2-oxo-1,2-dihydro-1,6-naphthyridin-3-yl)-4-bromo-2-fluorophenyl)-3-phenylurea], for which the IC50 on c-KIT D816V kinase was 100 to 1000 nM; in the test with Phospho-KIT (Tyr719) [2] it was 10 to 100 nM; in the test on GIST T1 cells, < 10 nM; on Phospho-KIT (Tyr719) [1], 100 to 1000 nM.
With `CCn1c(=O)c(-c2cc(NC(=O)Nc3cccc(F)c3)c(F)cc2C)cc2cnc(N)cc21` [Example 58, 1-(5-(7-amino-1-ethyl-2-oxo-1,2-dihydro-1,6-naphthyridin-3-yl)-2-fluoro-4-methylphenyl)-3-(3-fluorophenyl)urea], the IC50 at c-KIT D816V kinase is 10 to 100 nM; in the test with Phospho-KIT (Tyr719) [2] it was 10 to 100 nM; in the test with GIST T1 cells, < 10 nM; on Phospho-KIT (Tyr719) [1] it was 100 to 1000 nM.
Take `CCn1c(=O)c(-c2cc(NC(=O)Nc3cc(F)cc(F)c3)c(F)cc2C)cc2cnc(NC)cc21` [Example 60, 1-(3,5-difluorophenyl)-3-(5-(1-ethyl-7-(methylamino)-2-oxo-1,2-dihydro-1,6-naphthyridin-3-yl)-2-fluoro-4-methylphenyl)urea]: the IC50 on c-KIT D816V kinase, with Phospho-KIT (Tyr719) [2], at c-KIT VVDV kinase and with GIST T1 cells was 10 to 100 nM throughout.
With `CCn1c(=O)c(-c2cc(NC(=O)Nc3cc(F)ccc3F)c(F)cc2C)cc2cnc(NC)cc21` [Example 61, 1-(2,5-difluorophenyl)-3-(5-(1-ethyl-7-(methylamino)-2-oxo-1,2-dihydro-1,6-naphthyridin-3-yl)-2-fluoro-4-methylphenyl)urea], the IC50 at c-KIT D816V kinase was 10 to 100 nM; in the test with Phospho-KIT (Tyr719) [2], 10 to 100 nM; at c-KIT VVDV kinase it was < 10 nM; with GIST T1 cells, < 10 nM.
In the case of `CCn1c(=O)c(-c2cc(NC(=O)Nc3cc(F)cc(F)c3)c(F)cc2Cl)cc2cnc(NC(C)=O)cc21` [Example 67, N-(3-(2-chloro-5-(3-(3,5-difluorophenyl)ureido)-4-fluorophenyl)-1-ethyl-2-oxo-1,2-dihydro-1,6-naphthyridin-7-yl)acetamide], the IC50 on c-KIT D816V kinase is < 10 nM; in the test with Phospho-KIT (Tyr719) [2], < 10 nM; with GIST T1 cells, < 10 nM; on Phospho-KIT (Tyr719) [1] it was 10 to 100 nM.
As to `CNc1cc2c(cn1)cc(-c1cc(NC(=O)Nc3cccc(F)c3)c(F)cc1Cl)c(=O)n2C(C)C` [Example 77, 1-(4-chloro-2-fluoro-5-(1-isopropyl-7-(methylamino)-2-oxo-1,2-dihydro-1,6-naphthyridin-3-yl)phenyl)-3-(3-fluorophenyl)urea], the IC50 is < 10 nM at c-KIT D816V kinase, 10 to 100 nM with Phospho-KIT (Tyr719) [2], < 10 nM in the test with GIST T1 cells and 10 to 100 nM on Phospho-KIT (Tyr719) [1].
For the compound `CCn1c(=O)c(-c2cc(NC(=O)Nc3ccccc3)c(F)cc2Cl)cc2cnc(NC(=O)N3CC(O)C3)cc21` [Example 81, N-(3-(2-chloro-4-fluoro-5-(3-phenylureido)phenyl)-1-ethyl-2-oxo-1,2-dihydro-1,6-naphthyridin-7-yl)-3-hydroxyazetidine-1-carboxamide], the IC50 on c-KIT D816V kinase is 10 to 100 nM; with Phospho-KIT (Tyr719) [2] it was 10 to 100 nM; in the test with GIST T1 cells, < 10 nM; at Phospho-KIT (Tyr719) [1], 10 to 100 nM.
Regarding `CCn1c(=O)c(-c2cc(NC(=O)Nc3ccc(F)c(CN4CCN(C)CC4)c3)c(F)cc2Cl)cc2cnc(NC)cc21` [Example 87, 1-(4-chloro-5-(1-ethyl-7-(methylamino)-2-oxo-1,2-dihydro-1,6-naphthyridin-3-yl)-2-fluorophenyl)-3-(4-fluoro-3-((4-methylpiperazin-1-yl)methyl)phenyl)urea], the IC50 at c-KIT D816V kinase is 100 to 1000 nM; in the test with Phospho-KIT (Tyr719) [2] it was 100 to 1000 nM; in the test with GIST T1 cells, 10 to 100 nM; at Phospho-KIT (Tyr719) [1] it was 100 to 1000 nM.
With `CCn1c(=O)c(-c2cc(NC(=O)Nc3ccccc3)c(F)cc2C)cc2cnc(NC(=O)N(C)C)cc21` [Example 101, 3-(1-ethyl-3-(4-fluoro-2-methyl-5-(3-phenylureido)phenyl)-2-oxo-1,2-dihydro-1,6-naphthyridin-7-yl)-1,1-dimethylurea], the IC50 at c-KIT D816V kinase is 10 to 100 nM; with Phospho-KIT (Tyr719) [2], 10 to 100 nM; in the test on GIST T1 cells it was < 10 nM; at Phospho-KIT (Tyr719) [1], 100 to 1000 nM.
As to `CCn1c(=O)c(-c2cc(NC(=O)Nc3ccccc3)c(F)cc2Cl)cc2cnc(NC(=O)N3CC(N(C)C)C3)cc21` [Example 102, N-(3-(2-chloro-4-fluoro-5-(3-phenylureido)phenyl)-1-ethyl-2-oxo-1,2-dihydro-1,6-naphthyridin-7-yl)-3-(dimethylamino)azetidine-1-carboxamide], the IC50 is 10 to 100 nM on c-KIT D816V kinase, 10 to 100 nM with Phospho-KIT (Tyr719) [2] and < 10 nM in the test on GIST T1 cells.
